Measured values reported in article PMC10315065 (Journal of Innate Immunity, 2023).
Starred links: 1 amine or outer side, 2 acyl side, 3 side chain; linkers in the order of their positions; H or OH if unused. Positions of bridges follow the written chain, without caps; N, C: chain ends. Non-standard residues stand in square brackets, D forms with d. Residues, ends and D or L forms follow the SMILES beside them. Chains are numbered I, II in the order given. Actinocin(9to1) = Cc1c2oc3c(C)ccc(C(=O)[*:1])c3nc-2c(C(=O)[*:2])c(N)c1=O; NMeV = CN[C@H](C(=O)O)C(C)C; Sar = CNCC(=O)O

What was measured:
peritoneal macrophages = assay: Flow cytometry binding/uptake of LL-37-FAM, peritoneal macrophages; format: cell-based, C57BL/6 mice
J774 macrophages = assay: Flow cytometry binding/internalization of labelled peptide, J774; format: cell-based, mouse; details: n = 3
[1] = tested on: intracellular Mycobacterium tuberculosis in macrophages; details: cited from earlier work; for autophagy activation and M.tb elimination: via induction of cathelicidin LL-37
cell surface GAPDH, J774 = format: cell-based, mouse; details: KN-62 100 nM, 4 h; J774 wild-type; n = 3
[2] = tested on: GAPDH KD and wild-type cells; details: induced with actinomycin D; cited from earlier work
THP-1 cells = assay: Endocytosis of BSA-FITC; format: cell-based; details: BSA-FITC 10 μg, 37°C, 30 min; PMA-activated THP-1
[3] = Downstream effects of scrambled peptide; details: statement on negative control peptide
TLR-4, THP-1 cells = assay: TLR-4 membrane expression on LPS treatment; format: cell-based; details: LPS 1 ug, 24 h; PMA-activated THP-1

In the case of “5-FAM-LC-LLGDFFRKSKEKIGKEFKRIVQRIKDFLRNLVPRTES [LL-37-FAM]”, the “cell surface LL-37 binding and uptake, M.tb infected” value (peritoneal macrophages) is reported as “significantly enhanced” and the “LL-37 membrane accumulation and uptake, IFNγ-treated” value (J774 macrophages; IFNγ-treated subsets vs control cells) is reported as “initial higher accumulation of FAM-LL-37 at their membrane, followed by increase in LL-37 uptake into the cytoplasm”.

For `CN([C@@H](Cc1ccc(OS(=O)(=O)c2cccc3cnccc23)cc1)C(=O)N1CCN(c2ccccc2)CC1)S(=O)(=O)c1cccc2cnccc12` [KN-62, 1-(N,O-bis(5-Isoquinolinesulfonyl)-N-methyl-L-tyrosyl)-4-phenylpiperazine], the “effect on LL-37-induced anti-mycobacterial effects” value ([1]; KN-62) is given as “does not inhibit LL-37-induced anti-mycobacterial effects”, the “cell surface GAPDH expression with KN-62” value (cell surface GAPDH, J774) is given as “decrease in cell surface GAPDH expression” and the “LL-37 uptake with KN-62” value (J774 macrophages; KN-62 100 nM, 4 h, J774 wild-type) is given as “inhibition of LL-37 uptake into cells”.

For `Cc1c2oc3c(C)ccc(C(=O)N[C@@H]4C(=O)N[C@H](C(C)C)C(=O)N5CCC[C@H]5C(=O)N(C)CC(=O)N(C)[C@@H](C(C)C)C(=O)O[C@@H]4C)c3nc-2c(C(=O)N[C@@H]2C(=O)N[C@H](C(C)C)C(=O)N3CCC[C@H]3C(=O)N(C)CC(=O)N(C)[C@@H](C(C)C)C(=O)O[C@@H]2C)c(N)c1=O` [actinomycin D] (I: T[dV]P[Sar][NMeV] / II: T[dV]P[Sar][NMeV]; ester I:1-I:C, II:1-II:C; linker I:N-II:N via Actinocin(9to1)), the “induction of apoptosis, GAPDH KD vs wild-type” value [2] is given as “comparable”.

In the case of `O=C(O)CCCc1ccccc1` [phenylbutyrate], the “autophagy activation and M.tb elimination” value [1] is listed as “activate the antibacterial autophagy mechanism”.

In the case of `C=C1/C(=C\C=C2/CCC[C@]3(C)[C@@H]([C@H](C)CCCC(C)(C)O)CC[C@@H]23)C[C@@H](O)C[C@@H]1O` [vitamin 1,25-D3], the “autophagy activation and M.tb elimination” value [1] is given as “activate the antibacterial autophagy mechanism”.

In the case of BSA: BSA-FITC, endocytosis control, the “endocytosis of BSA, empty vector vs GAPDH KD” value (THP-1 cells) is reported as “could equally well carry out endocytosis of BSA”.

With “GLKLRFEFSKIKGEFLKTPEVRFRDIKLKDNRISVQR [scrambled peptide]” the “downstream effects of scrambled peptide” value [3] was “does not show downstream effects like the LL-37 peptide”.

In the case of lipopolysaccharide, the “TLR-4 membrane expression, empty vector and GAPDH KD” value (TLR-4, THP-1 cells) is reported as “upregulation of TLR-4 membrane expression levels”.
